This passage reports IC50 results from patent publication US20100216795A1, “TNIK INHIBITOR AND THE USE” (priority 2008, published 2010).

Format in all cases: biochemical
The target of assay [1] is T1, human TNIK (N-terminal segment, TNIK_N) (Homo sapiens, UniProt Q9UKE5).
T1 construct: made in house; host or cells: Sf21 insect cells (baculovirus)
The assay can be described thus: TNIK kinase assay (mobility shift). As to conditions: stated in text of Test Example 2.

The target of assay [2] is T2, AKT1 (Homo sapiens, UniProt P31749).
T2 construct: purchased Carna Biosciences
The assay can be described thus: Selectivity profiling, QuickScout STK Screening Panel. As to the method:
(§1) The inhibitory effects of Compound 1 against 20 tyrosine kinases and 30 serine/threonine kinases were investigated using QuickScout™ TK and STK Screening Panel (Carna Biosciences, Kobe Japan). […] The results reveal that Compound 1 inhibits TNIK_N more potently (IC50; 9 nM) than the other 50 kinases.

Assay [3] addresses T3, AMPKa1/b1/g1 (Homo sapiens, UniProt P54619+Q13131+Q9Y478).
T3 construct: purchased Carna Biosciences
The description is as above. How it is done:
as §1

Assay [4] has as its target T4, CHK1 (Homo sapiens, UniProt O14757).
T4 construct: purchased Carna Biosciences
The assay is described as above. How it is done: as §1

In assay [5] the target is T5, CK1e (Homo sapiens, UniProt P49674).
T5 construct: purchased Carna Biosciences
The description is as above. How it is done:
as §1

The target in assay [6] is T6, DAPK1 (Homo sapiens, UniProt P53355).
T6 construct: purchased Carna Biosciences
The description is as above. As to the method: as §1

Assay [7] has as its target T7, IKKb (Homo sapiens, UniProt O14920).
T7 construct: purchased Carna Biosciences
Described as above. As to the method:
as §1

Assay [8] concerns the target T8, MAP2K1 (Homo sapiens, UniProt Q02750).
T8 construct: purchased Carna Biosciences
The description is as above. As to the method:
as §1

Assay [9] deals with T9, MAPKAPK2 (Homo sapiens, UniProt P49137).
T9 construct: purchased Carna Biosciences
The description is as above. How it is done:
as §1

Assay [10] deals with T10, MLK1 (Homo sapiens, UniProt P80192).
T10 construct: purchased Carna Biosciences
The description is as above. How it is done: as §1

Assay [11] deals with T11, NEK2 (Homo sapiens, UniProt P51955).
T11 construct: purchased Carna Biosciences
Described as above. As to the method: as §1

The target of assay [12] is T12, PAK4 (Homo sapiens, UniProt O96013).
T12 construct: purchased Carna Biosciences
Described as above. How it is done:
as §1

The target of assay [13] is T13, PDK1 (Homo sapiens, UniProt O15530).
T13 construct: purchased Carna Biosciences
The assay is described as above. How it is done:
as §1

The target in assay [14] is T14, PIM1 (Homo sapiens, UniProt P11309).
T14 construct: purchased Carna Biosciences
The assay is described as above. As to the method:
as §1

T14 sequence (P11309 whole entry): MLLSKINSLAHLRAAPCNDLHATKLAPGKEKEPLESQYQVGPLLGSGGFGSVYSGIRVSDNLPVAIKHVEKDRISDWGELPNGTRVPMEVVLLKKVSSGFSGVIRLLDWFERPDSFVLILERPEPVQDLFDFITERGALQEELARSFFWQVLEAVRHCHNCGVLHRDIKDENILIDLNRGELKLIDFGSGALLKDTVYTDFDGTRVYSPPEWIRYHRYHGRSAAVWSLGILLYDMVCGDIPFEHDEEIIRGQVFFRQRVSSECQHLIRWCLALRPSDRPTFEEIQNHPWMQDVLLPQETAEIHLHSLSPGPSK
T6 sequence (P53355 whole entry): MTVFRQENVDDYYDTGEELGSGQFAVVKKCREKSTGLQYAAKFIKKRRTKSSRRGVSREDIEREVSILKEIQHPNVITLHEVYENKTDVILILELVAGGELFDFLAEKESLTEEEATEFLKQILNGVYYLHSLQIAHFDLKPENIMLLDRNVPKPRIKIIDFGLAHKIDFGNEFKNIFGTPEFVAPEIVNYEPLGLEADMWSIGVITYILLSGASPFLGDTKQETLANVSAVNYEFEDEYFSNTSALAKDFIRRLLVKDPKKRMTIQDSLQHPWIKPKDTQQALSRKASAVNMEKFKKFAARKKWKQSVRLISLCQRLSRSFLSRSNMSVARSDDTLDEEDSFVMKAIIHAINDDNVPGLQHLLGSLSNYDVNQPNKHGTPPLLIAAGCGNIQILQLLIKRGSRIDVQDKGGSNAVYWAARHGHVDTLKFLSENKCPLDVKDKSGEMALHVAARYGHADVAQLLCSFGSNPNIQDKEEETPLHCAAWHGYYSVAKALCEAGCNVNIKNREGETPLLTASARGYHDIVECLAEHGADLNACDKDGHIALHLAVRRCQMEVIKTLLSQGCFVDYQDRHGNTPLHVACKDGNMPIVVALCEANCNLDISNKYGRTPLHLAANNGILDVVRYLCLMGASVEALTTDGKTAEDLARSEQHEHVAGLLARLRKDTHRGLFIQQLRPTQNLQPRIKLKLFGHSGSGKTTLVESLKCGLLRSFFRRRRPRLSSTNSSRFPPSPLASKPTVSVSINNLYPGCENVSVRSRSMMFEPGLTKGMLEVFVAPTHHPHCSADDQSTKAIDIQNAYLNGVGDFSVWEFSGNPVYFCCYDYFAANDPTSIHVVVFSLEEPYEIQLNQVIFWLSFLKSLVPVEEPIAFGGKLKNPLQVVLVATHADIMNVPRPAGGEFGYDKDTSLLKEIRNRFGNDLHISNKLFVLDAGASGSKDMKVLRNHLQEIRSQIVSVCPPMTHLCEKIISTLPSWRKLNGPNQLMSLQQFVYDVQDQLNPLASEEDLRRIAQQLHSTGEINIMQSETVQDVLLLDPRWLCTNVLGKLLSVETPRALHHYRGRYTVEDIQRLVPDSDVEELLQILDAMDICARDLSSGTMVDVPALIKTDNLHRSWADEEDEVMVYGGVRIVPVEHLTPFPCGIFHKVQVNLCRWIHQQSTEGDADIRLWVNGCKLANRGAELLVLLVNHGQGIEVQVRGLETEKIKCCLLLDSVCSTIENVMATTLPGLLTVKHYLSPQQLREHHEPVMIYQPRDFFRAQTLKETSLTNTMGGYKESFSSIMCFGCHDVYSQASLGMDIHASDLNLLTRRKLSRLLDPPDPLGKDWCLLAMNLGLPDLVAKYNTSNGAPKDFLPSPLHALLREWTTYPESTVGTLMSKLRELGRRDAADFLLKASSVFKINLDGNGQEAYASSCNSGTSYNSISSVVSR
T8 sequence (Q02750 whole entry): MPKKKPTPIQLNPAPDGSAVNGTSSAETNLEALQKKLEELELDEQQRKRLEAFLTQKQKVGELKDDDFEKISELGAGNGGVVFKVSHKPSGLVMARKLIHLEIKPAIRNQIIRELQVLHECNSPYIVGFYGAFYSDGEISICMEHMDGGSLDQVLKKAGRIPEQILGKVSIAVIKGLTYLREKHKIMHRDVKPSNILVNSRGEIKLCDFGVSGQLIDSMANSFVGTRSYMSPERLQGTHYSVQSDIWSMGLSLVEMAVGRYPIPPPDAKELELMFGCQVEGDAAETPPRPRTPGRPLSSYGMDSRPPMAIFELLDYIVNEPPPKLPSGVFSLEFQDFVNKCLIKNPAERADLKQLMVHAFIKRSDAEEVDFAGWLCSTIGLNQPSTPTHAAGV
T7 sequence (O14920 whole entry): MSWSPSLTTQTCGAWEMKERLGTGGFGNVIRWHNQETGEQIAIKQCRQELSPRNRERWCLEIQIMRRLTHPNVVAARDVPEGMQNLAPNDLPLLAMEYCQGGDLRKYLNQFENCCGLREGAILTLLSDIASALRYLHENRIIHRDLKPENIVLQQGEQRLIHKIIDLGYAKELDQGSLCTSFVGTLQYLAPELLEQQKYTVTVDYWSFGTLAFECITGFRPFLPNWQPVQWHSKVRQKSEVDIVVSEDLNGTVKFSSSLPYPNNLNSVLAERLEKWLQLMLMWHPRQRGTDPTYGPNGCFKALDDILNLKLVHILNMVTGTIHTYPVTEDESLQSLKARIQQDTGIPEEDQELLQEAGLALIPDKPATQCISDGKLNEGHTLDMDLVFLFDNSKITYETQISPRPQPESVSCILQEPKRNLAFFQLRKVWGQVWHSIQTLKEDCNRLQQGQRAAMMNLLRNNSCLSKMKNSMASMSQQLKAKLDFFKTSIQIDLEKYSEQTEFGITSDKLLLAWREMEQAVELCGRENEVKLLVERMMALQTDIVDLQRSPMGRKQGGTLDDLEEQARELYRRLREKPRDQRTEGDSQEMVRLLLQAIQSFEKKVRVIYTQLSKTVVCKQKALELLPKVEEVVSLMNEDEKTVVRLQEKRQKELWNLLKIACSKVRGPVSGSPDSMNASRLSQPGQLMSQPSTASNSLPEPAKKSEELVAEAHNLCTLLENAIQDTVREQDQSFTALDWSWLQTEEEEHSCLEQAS
T2 sequence (P31749 whole entry): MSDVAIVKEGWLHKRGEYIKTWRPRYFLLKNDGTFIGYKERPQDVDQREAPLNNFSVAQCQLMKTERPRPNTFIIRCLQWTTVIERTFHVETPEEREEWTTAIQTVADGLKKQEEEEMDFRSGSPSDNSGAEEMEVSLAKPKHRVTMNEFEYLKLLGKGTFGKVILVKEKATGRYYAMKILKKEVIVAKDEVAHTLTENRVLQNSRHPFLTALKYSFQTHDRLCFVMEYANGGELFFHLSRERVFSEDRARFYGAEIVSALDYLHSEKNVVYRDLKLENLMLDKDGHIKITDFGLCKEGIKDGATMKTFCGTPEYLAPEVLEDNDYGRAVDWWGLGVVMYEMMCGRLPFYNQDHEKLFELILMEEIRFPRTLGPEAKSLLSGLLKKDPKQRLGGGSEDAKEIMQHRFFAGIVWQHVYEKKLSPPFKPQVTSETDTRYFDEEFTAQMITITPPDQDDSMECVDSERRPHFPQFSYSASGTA
T1 sequence (Q9UKE5 1-314): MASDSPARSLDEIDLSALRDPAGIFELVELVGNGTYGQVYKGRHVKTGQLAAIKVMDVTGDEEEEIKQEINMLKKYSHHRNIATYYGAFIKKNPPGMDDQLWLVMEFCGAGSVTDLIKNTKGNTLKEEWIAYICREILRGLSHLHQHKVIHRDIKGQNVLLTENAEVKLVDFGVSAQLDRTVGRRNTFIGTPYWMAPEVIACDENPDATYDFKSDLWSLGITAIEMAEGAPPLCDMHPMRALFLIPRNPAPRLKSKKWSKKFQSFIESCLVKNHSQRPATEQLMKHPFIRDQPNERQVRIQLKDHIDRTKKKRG
T5 sequence (P49674 whole entry): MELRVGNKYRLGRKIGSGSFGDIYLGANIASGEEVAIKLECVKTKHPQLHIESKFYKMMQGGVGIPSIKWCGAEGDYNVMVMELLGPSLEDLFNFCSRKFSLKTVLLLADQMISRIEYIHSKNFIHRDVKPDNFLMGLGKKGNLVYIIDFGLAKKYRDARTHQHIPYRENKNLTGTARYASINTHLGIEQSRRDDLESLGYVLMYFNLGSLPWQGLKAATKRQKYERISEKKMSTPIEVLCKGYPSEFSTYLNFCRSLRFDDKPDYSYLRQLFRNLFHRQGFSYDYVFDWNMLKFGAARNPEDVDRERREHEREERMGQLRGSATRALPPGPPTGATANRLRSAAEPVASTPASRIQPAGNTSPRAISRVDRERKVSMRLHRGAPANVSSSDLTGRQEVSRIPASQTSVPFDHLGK
T4 sequence (O14757 whole entry): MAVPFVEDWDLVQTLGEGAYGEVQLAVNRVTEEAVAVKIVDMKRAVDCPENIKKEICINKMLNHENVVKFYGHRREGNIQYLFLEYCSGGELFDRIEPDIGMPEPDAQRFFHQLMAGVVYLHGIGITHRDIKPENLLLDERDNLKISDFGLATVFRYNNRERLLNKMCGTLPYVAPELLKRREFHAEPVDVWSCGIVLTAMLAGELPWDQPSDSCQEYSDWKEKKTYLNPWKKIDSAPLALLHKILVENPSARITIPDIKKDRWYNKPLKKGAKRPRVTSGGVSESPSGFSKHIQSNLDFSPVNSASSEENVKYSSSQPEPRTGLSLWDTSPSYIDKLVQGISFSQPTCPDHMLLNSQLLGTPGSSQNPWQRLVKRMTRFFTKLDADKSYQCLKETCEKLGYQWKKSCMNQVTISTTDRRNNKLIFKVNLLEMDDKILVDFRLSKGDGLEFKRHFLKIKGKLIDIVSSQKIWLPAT
T9 sequence (P49137 whole entry): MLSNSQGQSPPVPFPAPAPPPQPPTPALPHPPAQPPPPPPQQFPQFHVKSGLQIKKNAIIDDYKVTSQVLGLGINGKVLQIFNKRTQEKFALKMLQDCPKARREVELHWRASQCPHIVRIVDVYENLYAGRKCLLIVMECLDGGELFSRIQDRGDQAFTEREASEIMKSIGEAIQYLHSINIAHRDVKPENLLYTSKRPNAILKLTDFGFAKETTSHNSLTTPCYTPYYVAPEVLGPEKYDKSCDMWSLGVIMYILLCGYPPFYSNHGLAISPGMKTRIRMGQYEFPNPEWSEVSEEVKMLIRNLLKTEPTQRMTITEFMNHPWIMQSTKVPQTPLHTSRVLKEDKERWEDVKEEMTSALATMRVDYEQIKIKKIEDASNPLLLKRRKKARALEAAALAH

As usually defined, the IC50 is the concentration needed to halve the response being measured. `CC(=O)Nc1ccc(C(=O)Nc2sc(Nc3ccccc3)nc2C(N)=O)cc1` [Compound 1, 5-(4-acetamidobenzamido)-2-(phenylamino)thiazole-4-carboxamide]: the IC50 in assay [1] is 0.009 µM; in assay [2], more than 0.3 µM; in assay [3] it was more than 0.3 µM; in assay [4] it was more than 0.3 µM; in assay [5], more than 0.3 µM; in assay [6], more than 0.3 µM. Further, the IC50 is more than 0.3 µM in [7]; more than 0.3 µM in assay [8]; more than 0.3 µM in assay [9]; 0.018 µM in assay [10]; more than 0.3 µM in [11]; more than 0.3 µM in assay [12]. In addition, the IC50 in assay [13] and in assay [14] was more than 0.3 µM throughout.
